{"source": "ChEMBL document CHEMBL4819065", "about": "“Gelstriamine A, a Triamino Monoterpene Indole Alkaloid with a Caged 6/5/7/6/6/5 Scaffold and Analgesic Alkaloids from Gelsemium elegans Stems” (2021)", "note": "Active and inactive are the calls of the source. The rule behind the calls is not given here."}
{"tested_on": "Mus musculus", "experiment": "Analgesic activity in Kunming mouse assessed as inhibition of acetic acid-induced writhing at 0.04 mg/kg, ip pretreated with compound for 30 mins followed by acetic acid challenge and measured after 30 mins", "format": "functional", "settings": "1 h, time 60 min", "units": {"inhibition in vivo at 0.04 mg/kg": "%"}}
{"compound": "C/C=C1\\C[N@+](C)([O-])[C@H]2C[C@@]3(C(=O)Nc4ccccc43)[C@H]3C[C@@H]1[C@@H]2CO3", "inhibition in vivo at 0.04 mg/kg": 67.6}
{"tested_on": "Mus musculus", "experiment": "Analgesic activity in Kunming mouse assessed as inhibition of acetic acid-induced writhing at 5 mg/kg, ip pretreated with compound for 30 mins followed by acetic acid challenge and measured after 30 mins", "format": "functional, organism-based", "settings": "time 60.0 min"}
{"compound": "C/C=C1\\CN[C@H]2C[C@@]3(C(=O)N(OC)c4cc(OC)ccc43)[C@H]3C[C@@H]1[C@@H]2CO3", "Activity": "Active"}
{"compound": "C=CC12CN[C@@H]3[C@H]4CO[C@H](CC41)[C@]1(C(=O)Nc4ccccc41)[C@@H]32", "Activity": "Active"}
{"compound": "C/C=C1\\C[N@+](C)([O-])[C@H]2C[C@@]3(C(=O)N(OC)c4cc(O)ccc43)[C@H]3C[C@@H]1[C@@H]2CO3", "Activity": "Active"}
{"compound": "c1ccc2[nH]c(-c3cc4c(cn3)CCCC4)cc2c1", "Activity": "Active"}
{"compound": "C/C=C1\\CN(C)[C@H]2C[C@@]3(C(=O)N(OC)c4cc(O)ccc43)[C@H]3C[C@@H]1[C@@H]2CO3", "Activity": "Active"}
{"compound": "C/C=C1\\CN(C)[C@H]2C[C@@]3(C(=O)Nc4ccccc43)[C@H]3C[C@@H]1[C@@H]2CO3", "Activity": "Active"}
{"compound": "C/C=C1\\CN(C)[C@H]2C[C@@]3(C(=O)N(OC)c4ccccc43)[C@H]3C[C@@H]1[C@@H]2CO3", "Activity": "Active"}
{"compound": "CC[C@@]1(CO)N[C@H]2C[C@@]3(C(=O)N(OC)c4ccccc43)[C@H]3C[C@@H]1[C@@H]2CO3", "Activity": "Active"}
{"compound": "CON1C(=O)[C@@]2(C[C@@H]3N[C@](CO)([C@@H](C)O)[C@@H]4C[C@H]2OC[C@H]34)c2ccccc21", "Activity": "Active"}
{"compound": "COc1ccc2c(c1)N(OC)C(=O)[C@@]21C[C@@H]2N[C@](CO)([C@@H](C)O)[C@@H]3C[C@H]1OC[C@H]23", "Activity": "Active"}
{"compound": "C/C=C1\\C[N@@+]2([O-])[C@H]3C[C@@H]1[C@@H](CO)[C@@H]2Cc1c3[nH]c2ccccc12", "Activity": "Active"}
{"compound": "C/C=C1\\C[N@+](C)([O-])[C@H]2C[C@@]3(C(=O)Nc4ccccc43)[C@H]3C[C@@H]1[C@@H]2CO3", "Activity": "Active"}
{"compound": "C/C=C1\\CN2[C@H]3C[C@@H]1[C@@H](CO)[C@@H]2Cc1c3[nH]c2ccccc12", "Activity": "Active"}
{"compound": "C=C[C@@]12CN[C@@H]3C[C@]14C(=Nc1ccccc14)[C@H]1C[C@@H]2[C@@H]3CO1", "Activity": "Active"}
{"compound": "C/C=C1\\C[N@+](C)([O-])[C@H]2C[C@@]3(C(=O)N(OC)c4ccccc43)[C@H]3C[C@@H]1[C@@H]2CO3", "Activity": "Active"}
{"compound": "C/C=C1\\CN2[C@H]3C[C@@H]1[C@H](CO)[C@@H]2Cc1c3[nH]c2ccccc12", "Activity": "Active"}
{"compound": "CC[C@@]12OC(=O)N[C@@H]1N(C)[C@H]1C[C@@]3(C(=O)N(OC)c4ccccc43)[C@H]3C[C@@H]2[C@@H]1CO3", "Activity": "Active"}
{"tested_on": "Mus musculus", "experiment": "Analgesic activity in Kunming mouse assessed as inhibition of acetic acid-induced writhing at 0.2 mg/kg, ip pretreated with compound for 30 mins followed by acetic acid challenge and measured after 30 mins", "format": "functional", "settings": "1 h, time 60 min", "units": {"inhibition in vivo at 0.2 mg/kg": "%"}}
{"compound": "C/C=C1\\C[N@+](C)([O-])[C@H]2C[C@@]3(C(=O)Nc4ccccc43)[C@H]3C[C@@H]1[C@@H]2CO3", "inhibition in vivo at 0.2 mg/kg": 76.1}
{"tested_on": "Mus musculus", "experiment": "Analgesic activity in Kunming mouse assessed as inhibition of acetic acid-induced writhing at 1 mg/kg, ip pretreated with compound for 30 mins followed by acetic acid challenge and measured after 30 mins", "format": "functional", "settings": "1 h, time 60 min", "units": {"inhibition in vivo at 1 mg/kg": "%"}}
{"compound": "CC[C@@]12OC(=O)N[C@@H]1N(C)[C@H]1C[C@@]3(C(=O)N(OC)c4ccccc43)[C@H]3C[C@@H]2[C@@H]1CO3", "inhibition in vivo at 1 mg/kg": 64.7}
